Source: ChEMBL document CHEMBL4152250, “Antibacterial and anti-TB tat-peptidomimetics with improved efficacy and half-life” (Eur J Med Chem, 2018)
≈ marks a conversion by molar mass, not a printed value. Numbered stars: 1 amine (or outer) side, 2 acyl side, 3 side chain; on linkers, the order of the positions; unused ones are H or OH. Square brackets hold non-standard residues; d marks the D form. Peptide text beside a SMILES is read from it. Pro(cis-4-guanidino) = NC(N)=N[C@@H]1CN[C@H](C(=O)O)C1; X1 = NCCCN1C[C@@H](N[*:1])C[C@H]1C(=O)[*:2]; Ethylenediamine = C(CN[*:2])N[*:1]; βAla = NCCC(=O)O

Assays:
Bacillus subtilis = experiment: Antibacterial activity against Bacillus subtilis NCIM 2079 after 12 hrs by serial dilution method; assay type: functional, organism-based; details: NCIM 2079, 12 h
[1] = system: Mycobacterium tuberculosis; experiment: Antitubercular activity against active stage of Mycobacterium tuberculosis H37Ra ATCC 25177 after 8 days by XRMA; assay type: functional, organism-based; details: H37Ra ATCC 25177, 192 h
[2] = system: Mycobacterium tuberculosis; experiment: Antitubercular activity against dormant stage of Mycobacterium tuberculosis H37Ra ATCC 25177 after 12 days by XRMA; assay type: functional, organism-based; details: H37Ra ATCC 25177, 288 h
Staphylococcus aureus = experiment: Antibacterial activity against Staphylococcus aureus NCIM 2010 after 12 hrs by serial dilution method; assay type: functional, organism-based; details: NCIM 2010, 12 h
Escherichia coli = experiment: Antibacterial activity against Escherichia coli NCIM 2688 after 8 hrs by serial dilution method; assay type: functional, organism-based; details: NCIM 2688, 8 h
[3] = Cytotoxicity against human HeLa cells assessed as cell viability at 1 to 10 uM after 24 hrs by MTT assay relative to control; assay type: cell-based; details: read-out: Activity
Pseudomonas aeruginosa = experiment: Antibacterial activity against Pseudomonas aeruginosa NCIM 2036 after 8 hrs by serial dilution method; assay type: functional, organism-based; details: NCIM 2036, 8 h
[4] = system: Staphylococcus epidermidis; experiment: Antibacterial activity against Staphylococcus epidermidis NCIM 5270 after 12 hrs by serial dilution method; assay type: functional, organism-based; details: NCIM 5270, 12 h
Enterobacter sp. = experiment: Antibacterial activity against Enterobacter sp. NCIM 5392 after 8 hrs by serial dilution method; assay type: functional, organism-based; details: NCIM 5392, 8 h

| SMILES | IC50 (Bacillus subtilis) [µM] | MIC (Bacillus subtilis) [µM] | IC50 [1] [µM] | MIC [1] [µM] | IC50 [2] [µM] | MIC [2] [µM] | IC50 (Staphylococcus aureus) [µM] | MIC (Staphylococcus aureus) [µM] | IC50 (Escherichia coli) [µM] | MIC (Escherichia coli) [µM] | viability at 24 h, up to 10 µM [3] [%] | IC50 (Pseudomonas aeruginosa) [µM] | MIC (Pseudomonas aeruginosa) [µM] | IC50 [4] [µM] | MIC [4] [µM] | IC50 (Enterobacter sp.) [µM] | MIC (Enterobacter sp.) [µM] |
| --- | --- | --- | --- | --- | --- | --- | --- | --- | --- | --- | --- | --- | --- | --- | --- | --- | --- |
| CC(=O)N[C@@H](Cc1ccccc1)C(=O)NCC(=O)N1C[C@@H](NC(=N)N)C[C@H]1C(=O)N[C@@H](CCCCN)C(=O)N[C@@H](CCCCN)C(=O)N[C@@H](CCCNC(=N)N)C(=O)N1C[C@@H](NC(=N)N)C[C@H]1C(=O)N[C@@H](CCC(N)=O)C(=O)N1C[C@@H](NC(=N)N)C[C@H]1C(=O)N[C@@H](CCCNC(=N)N)C(=O)N1C[C@@H](NC(=N)N)C[C@H]1C(=O)NCCC(N)=O (Ac-FG[Pro(cis-4-guanidino)]KKR[Pro(cis-4-guanidino)]Q[Pro(cis-4-guanidino)]R[Pro(cis-4-guanidino)][βAla]-NH2) | 0.143 | 15.1 (≈ 24.9 µg/mL) | 7.44 | 53.9 (≈ 88.8 µg/mL) | 1.91 | 29.4 (≈ 48.4 µg/mL) | 0.092 | 5.59 (≈ 9.21 µg/mL) | 0.223 | 27.7 (≈ 45.7 µg/mL) | ≥ 80 | 0.063 | 26 (≈ 42.8 µg/mL) | – | – | – | – |
| CC(=O)N[C@@H](Cc1ccccc1)C(=O)NCC(=O)N[C@H]1C[C@@H](C(=O)N[C@@H](CCCCN)C(=O)N[C@@H](CCCCN)C(=O)N[C@@H](CCCNC(=N)N)C(=O)N[C@H]2C[C@@H](C(=O)N[C@@H](CCC(N)=O)C(=O)N[C@@H](CCCNC(=N)N)C(=O)N[C@@H](CCCNC(=N)N)C(=O)N[C@H]3C[C@@H](C(=O)NCCC(N)=O)N(CCCN)C3)N(CCCN)C2)N(CCCN)C1 (Ac-FG[X1]KKR[X1]QRR[X1][βAla]-NH2) | 0.0124 | 4.16 (≈ 7.05 µg/mL) | 4.5 | 43 (≈ 72.9 µg/mL) | 2.24 | 26.3 (≈ 44.6 µg/mL) | 0.0106 | 3.02 (≈ 5.12 µg/mL) | 0.0165 | 3.52 (≈ 5.97 µg/mL) | ≥ 80 | 0.0082 | 2.32 (≈ 3.93 µg/mL) | 0.033 | 7.25 (≈ 12.3 µg/mL) | 0.0124 | 4.65 (≈ 7.88 µg/mL) |
| CC(=O)N[C@@H](Cc1ccccc1)C(=O)NCC(=O)N[C@H]1C[C@@H](C(=O)N[C@@H](CCCCN)C(=O)N[C@@H](CCCCN)C(=O)N[C@@H](CCCNC(=N)N)C(=O)N[C@H]2C[C@@H](C(=O)N[C@@H](CCC(N)=O)C(=O)N[C@H]3C[C@@H](C(=O)N[C@@H](CCCNC(=N)N)C(=O)N[C@H]4C[C@@H](C(=O)NCCN)N(CCCN)C4)N(CCCN)C3)N(CCCN)C2)N(CCCN)C1 (Ac-FG[X1]KKR[X1]Q[X1]R[X1]-Ethylenediamine) | 0.0058 | 3.79 (≈ 6.37 µg/mL) | 4.92 | 34.4 (≈ 57.8 µg/mL) | 1.42 | 18.3 (≈ 30.7 µg/mL) | 0.0134 | 3.02 (≈ 5.07 µg/mL) | 0.007 | 2.34 (≈ 3.93 µg/mL) | ≥ 80 | 0.007 | 2.2 (≈ 3.7 µg/mL) | 0.007 | 3.94 (≈ 6.62 µg/mL) | 0.011 | 4.51 (≈ 7.58 µg/mL) |
| CC1(C)S[C@@H]2[C@H](NC(=O)[C@H](N)c3ccccc3)C(=O)N2[C@H]1C(=O)O [AMPICILLIN] | 1 | 29.5 (≈ 10.3 µg/mL) | – | – | – | – | 0.1 | 2.8 (≈ 0.978 µg/mL) | 0.146 | 4.17 (≈ 1.46 µg/mL) | – | 0.436 | 12.5 (≈ 4.37 µg/mL) | – | – | – | – |
| NC[C@H]1O[C@H](O[C@H]2[C@H](O)[C@@H](O[C@H]3O[C@H](CO)[C@@H](O)[C@H](N)[C@H]3O)[C@H](N)C[C@@H]2N)[C@H](O)[C@@H](O)[C@@H]1O [KANAMYCIN] | 0.135 | 2.8 (≈ 1.36 µg/mL) | – | – | – | – | 0.3 | > 61.9 | 0.162 | 3.3 (≈ 1.6 µg/mL) | – | 0.049 | 1.01 (≈ 0.489 µg/mL) | – | – | – | – |
| NC(=O)c1cnccn1 [PYRAZINAMIDE] | – | – | – | > 100 | – | > 100 | – | – | – | – | – | – | – | – | – | – | – |
| CO[C@H]1/C=C/O[C@@]2(C)Oc3c(C)c(O)c4c(O)c(c(/C=N/N5CCN(C)CC5)c(O)c4c3C2=O)NC(=O)/C(C)=C\C=C\[C@H](C)[C@H](O)[C@@H](C)[C@@H](O)[C@@H](C)[C@H](OC(C)=O)[C@@H]1C [RIFAMPIN] | – | – | – | 0.97 (≈ 0.798 µg/mL) | – | 0.91 (≈ 0.749 µg/mL) | – | – | – | – | – | – | – | – | – | – | – |
